Source: ChEMBL document CHEMBL1255556, “6-Alkoxyisoindolin-1-one based dopamine D2 partial agonists as potential antipsychotics” (Bioorg Med Chem Lett, 2010)

Assays:
[1] = target: 5-hydroxytryptamine receptor 2A (Homo sapiens, UniProt P28223); assay: Binding affinity to human 5HT2A receptor
[2] = target: T1, 5-hydroxytryptamine receptor 1A (Homo sapiens, UniProt P08908); assay: Binding affinity to human 5HT1A receptor expressed in HeLa cells by scintillation proximity assay; format: cell-based
T1 sequence (P08908 whole entry): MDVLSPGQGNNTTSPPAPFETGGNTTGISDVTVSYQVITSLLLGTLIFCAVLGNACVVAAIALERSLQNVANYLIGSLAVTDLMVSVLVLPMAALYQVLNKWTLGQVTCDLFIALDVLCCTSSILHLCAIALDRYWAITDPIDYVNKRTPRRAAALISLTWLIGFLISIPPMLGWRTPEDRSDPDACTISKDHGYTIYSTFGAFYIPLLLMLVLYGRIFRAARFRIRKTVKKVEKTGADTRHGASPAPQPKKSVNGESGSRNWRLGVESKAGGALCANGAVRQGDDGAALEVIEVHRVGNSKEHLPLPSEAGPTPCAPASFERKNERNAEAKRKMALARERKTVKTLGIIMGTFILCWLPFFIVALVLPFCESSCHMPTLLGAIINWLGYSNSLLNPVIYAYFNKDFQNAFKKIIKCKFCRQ

[3] = target: T2, Sodium-dependent serotonin transporter (Homo sapiens, UniProt P31645); assay: Displacement of [3H]-citalopram from human serotonin transporter expressed in HEK 293 cells by scintillation proximity assay; format: cell-based, HEK293
[4] = target: T2, Sodium-dependent serotonin transporter; assay: Displacement of [3H]-citalopram from human serotonin transporter expressed in HEK 293 cells; format: cell-based, HEK293
[5] = target: T1, 5-hydroxytryptamine receptor 1A; assay: biochemical
Description: Displacement of [3H]-8-OH-DPAT from human 5HT1A receptor expressed in HeLa cells

[6] = target: Voltage-gated inwardly rectifying potassium channel KCNH2 (Homo sapiens, UniProt Q12809)
Sequence of Voltage-gated inwardly rectifying potassium channel KCNH2 (Q12809 whole entry): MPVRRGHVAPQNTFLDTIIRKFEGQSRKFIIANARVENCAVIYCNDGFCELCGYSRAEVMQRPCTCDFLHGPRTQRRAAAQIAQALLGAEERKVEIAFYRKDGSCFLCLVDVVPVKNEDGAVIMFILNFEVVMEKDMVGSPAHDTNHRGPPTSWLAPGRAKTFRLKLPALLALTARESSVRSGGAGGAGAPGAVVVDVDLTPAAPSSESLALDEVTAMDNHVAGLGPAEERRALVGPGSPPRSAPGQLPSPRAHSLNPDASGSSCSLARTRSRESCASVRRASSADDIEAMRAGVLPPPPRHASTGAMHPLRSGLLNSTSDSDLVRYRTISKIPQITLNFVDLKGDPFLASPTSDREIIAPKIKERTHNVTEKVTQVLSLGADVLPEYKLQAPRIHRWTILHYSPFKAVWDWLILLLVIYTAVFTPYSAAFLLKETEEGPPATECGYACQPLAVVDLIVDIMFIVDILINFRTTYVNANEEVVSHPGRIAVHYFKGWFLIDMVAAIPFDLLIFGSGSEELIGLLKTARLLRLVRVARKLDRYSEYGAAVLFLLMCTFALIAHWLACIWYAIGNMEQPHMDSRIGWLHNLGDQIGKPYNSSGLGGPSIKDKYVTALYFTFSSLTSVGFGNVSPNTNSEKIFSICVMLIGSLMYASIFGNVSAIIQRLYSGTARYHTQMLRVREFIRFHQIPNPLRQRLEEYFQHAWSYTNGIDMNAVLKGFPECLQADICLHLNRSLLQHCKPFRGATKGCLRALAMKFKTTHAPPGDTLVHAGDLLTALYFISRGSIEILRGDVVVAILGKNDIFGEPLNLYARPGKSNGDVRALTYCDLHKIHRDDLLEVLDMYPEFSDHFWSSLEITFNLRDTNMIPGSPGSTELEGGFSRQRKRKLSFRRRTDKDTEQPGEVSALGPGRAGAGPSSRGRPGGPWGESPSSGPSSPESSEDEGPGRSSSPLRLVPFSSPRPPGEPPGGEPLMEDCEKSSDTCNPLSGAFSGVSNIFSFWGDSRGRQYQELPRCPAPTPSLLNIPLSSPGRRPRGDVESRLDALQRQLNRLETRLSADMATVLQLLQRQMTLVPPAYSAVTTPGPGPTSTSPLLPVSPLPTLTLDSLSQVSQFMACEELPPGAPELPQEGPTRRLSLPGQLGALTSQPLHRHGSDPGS
Description: Displacement of [3H]dofetilide from human ERG

T2 sequence (P31645 whole entry): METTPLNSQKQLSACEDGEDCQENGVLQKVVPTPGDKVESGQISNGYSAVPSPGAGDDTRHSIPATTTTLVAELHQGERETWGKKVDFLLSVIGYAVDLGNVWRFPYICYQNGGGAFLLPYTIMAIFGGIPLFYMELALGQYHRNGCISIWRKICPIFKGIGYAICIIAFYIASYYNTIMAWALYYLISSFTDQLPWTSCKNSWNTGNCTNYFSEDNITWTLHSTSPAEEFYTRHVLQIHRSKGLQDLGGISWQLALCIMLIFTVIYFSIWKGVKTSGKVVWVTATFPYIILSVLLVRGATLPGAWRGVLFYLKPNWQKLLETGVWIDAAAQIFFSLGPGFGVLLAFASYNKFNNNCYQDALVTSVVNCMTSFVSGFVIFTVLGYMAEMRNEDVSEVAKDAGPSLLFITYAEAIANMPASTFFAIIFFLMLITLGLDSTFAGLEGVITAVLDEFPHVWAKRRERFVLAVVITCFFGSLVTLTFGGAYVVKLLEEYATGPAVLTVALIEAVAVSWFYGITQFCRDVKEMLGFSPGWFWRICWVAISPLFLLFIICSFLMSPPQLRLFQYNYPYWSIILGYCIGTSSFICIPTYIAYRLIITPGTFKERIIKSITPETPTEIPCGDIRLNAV
Sequence of 5-hydroxytryptamine receptor 2A (P28223 whole entry): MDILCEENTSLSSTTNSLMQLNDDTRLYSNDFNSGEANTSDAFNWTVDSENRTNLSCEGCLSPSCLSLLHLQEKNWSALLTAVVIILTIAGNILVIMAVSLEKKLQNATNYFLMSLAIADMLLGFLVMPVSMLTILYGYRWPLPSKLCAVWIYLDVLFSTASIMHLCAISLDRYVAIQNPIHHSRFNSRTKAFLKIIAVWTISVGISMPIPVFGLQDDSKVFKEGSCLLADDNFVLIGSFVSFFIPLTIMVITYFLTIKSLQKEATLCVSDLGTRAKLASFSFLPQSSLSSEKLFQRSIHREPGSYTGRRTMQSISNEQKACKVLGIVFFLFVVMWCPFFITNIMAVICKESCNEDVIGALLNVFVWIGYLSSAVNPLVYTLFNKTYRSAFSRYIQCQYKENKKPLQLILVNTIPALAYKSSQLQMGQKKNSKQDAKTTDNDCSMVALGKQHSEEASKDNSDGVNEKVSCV

| SMILES | Ki [1] [nM] | Ki [2] [nM] | Ki [3] [nM] | Ki [4] [nM] | Ki [5] [nM] | Ki [6] [nM] |
| --- | --- | --- | --- | --- | --- | --- |
| O=C1NCc2cc(Cl)c(OCCCCN3CCN(c4cccc5cccc(F)c45)CC3)cc21 | 25.3 | 1.68 | 45.6 | – | – | – |
| O=C1NCc2ccc(OCCCN3CCN(c4cccc5c4CCC5)CC3)cc21 | 3.16 | > 4.04 | – | – | – | – |
| O=C1NCc2ccc(OCCCCN3CCN(c4cccc5c4CCO5)CC3)cc21 | 53.4 | 1.45 | – | – | – | – |
| Cc1cc2c(cc1OCCCCN1CCN(c3cccc4ccccc34)CC1)C(=O)NC2 | 36.8 | 0.803 | 504 | – | – | – |
| Cc1cc2c(cc1OCCCCN1CCN(c3cccc4cccc(F)c34)CC1)C(=O)NC2 | 55 | 3.61 | 118 | – | – | – |
| Cc1cc2c(cc1OCCCN1CCN(c3cccc4cccc(F)c34)CC1)C(=O)NC2 | 65.7 | 1.44 | 174 | – | – | – |
| O=C1NCc2ccc(OCCCCN3CCN(c4cccc5c4COCC5)CC3)cc21 | 5.44 | – | – | – | 0.279 | – |
| O=C1NCc2ccc(OCCCN3CCN(c4cccc5cccc(F)c45)CC3)c(Cl)c21 | 3.55 | 0.312 | 230 | – | – | – |
| O=C1NCc2ccc(OCCCN3CCN(c4cccc5cc(F)ccc45)CC3)c(F)c21 | 5.41 | 3.04 | 24.7 | 37.4 | – | – |
| O=C1NCc2ccc(OCCCCN3CCN(c4cccc5ccc(F)cc45)CC3)c(F)c21 | 2.1 | 4.56 | – | 259 | – | – |
| Cc1c(OCCCN2CCN(c3cccc4ccccc34)CC2)ccc2c1C(=O)NC2 | 9.43 | 0.615 | 194 | – | – | – |
| O=C1NCc2ccc(OCCCN3CCN(c4cccc5c4CCCC5)CC3)cc21 | 4.86 | 0.269 | – | – | – | – |
| Cc1cc2c(cc1OCCCCN1CCN(c3cccc4cc(F)ccc34)CC1)C(=O)NC2 | 29.5 | 1.98 | 8.81 | – | – | – |
| O=C1NCc2ccc(OCCCCN3CCN(c4cccc5c4COC5)CC3)cc21 | 126 | 6.88 | – | – | – | – |
| O=C1NCc2ccc(OCCCN3CCN(c4cccc5cccc(F)c45)CC3)c(F)c21 | 3.45 | < 0.14 | – | 160 | – | – |
| O=C1NCc2ccc(OCCCCN3CCN(c4cccc5cc(F)ccc45)CC3)c(F)c21 | 3.07 | 5.01 | – | 2720 | – | – |
| Cc1c(OCCCN2CCN(c3cccc4cc(F)ccc34)CC2)ccc2c1C(=O)NC2 | 12.5 | 1.08 | 21.4 | – | – | – |
| O=C1NCc2ccc(OCCCCN3CCN(c4cccc5ccc(F)cc45)CC3)cc21 | 11.4 | – | – | – | 0.838 | – |
| O=C1NCc2cc(F)c(OCCCN3CCN(c4cccc5cccc(F)c45)CC3)cc21 | 1.19 | < 0.521 | – | 15.6 | – | – |
| O=C1NCc2ccc(OCCCN3CCN(c4cccc5ccccc45)CC3)c(F)c21 | 2.21 | 0.128 | – | 84.7 | – | – |
| O=C1NCc2ccc(OCCCCN3CCN(c4cccc5c4CCCC5)CC3)cc21 | 3.35 | 1.92 | – | – | – | – |
| O=C1NCc2ccc(OCCCCN3CCN(c4cccc5cccc(F)c45)CC3)c(Cl)c21 | 1.13 | 4.25 | 213 | – | – | – |
| Cc1c(OCCCCN2CCN(c3cccc4ccccc34)CC2)ccc2c1C(=O)NC2 | 1.26 | 3.22 | 388 | – | – | – |
| O=C1NCc2cc(F)c(OCCCCN3CCN(c4cccc5cccc(F)c45)CC3)cc21 | 3.49 | 0.118 | 42.6 | 10.5 | – | – |
| O=C1NCc2cc(F)c(OCCCCN3CCN(c4cccc5ccc(F)cc45)CC3)cc21 | 10 | 1.77 | – | 110 | – | – |

The next lines start with results.

| Ki [1] [nM] | Ki [2] [nM] | Ki [3] [nM] | Ki [4] [nM] | Ki [5] [nM] | SMILES | Ki [6] [nM] |
| --- | --- | --- | --- | --- | --- | --- |
| 0.568 | 2.09 | 48.1 | 57.2 | – | O=C1NCc2ccc(OCCCCN3CCN(c4cccc5cccc(F)c45)CC3)c(F)c21 | – |
| 52 | 0.517 | 13.6 | – | – | Cc1cc2c(cc1OCCCN1CCN(c3cccc4cc(F)ccc34)CC1)C(=O)NC2 | – |
| 16.1 | 2.13 | 437 | – | – | Cc1c(OCCCN2CCN(c3cccc4cccc(F)c34)CC2)ccc2c1C(=O)NC2 | – |
| 34.4 | 0.814 | 67.7 | – | – | O=C1NCc2cc(Cl)c(OCCCN3CCN(c4cccc5ccccc45)CC3)cc21 | – |
| 13 | 0.637 | – | 30.8 | – | O=C1NCc2cc(F)c(OCCCCN3CCN(c4cccc5ccccc45)CC3)cc21 | – |
| 0.904 | < 0.205 | 447 | 1770 | – | O=C1NCc2ccc(OCCCN3CCN(c4cccc5ccc(F)cc45)CC3)c(F)c21 | – |
| 3.54 | – | – | – | 1.54 | O=C1NCc2ccc(OCCCN3CCN(c4cccc5cc(F)ccc45)CC3)cc21 | 439 |
| – | – | – | – | 0.0141 | O=C1NCc2ccc(OCCCN3CCN(c4cccc5cccc(F)c45)CC3)cc21 | 1290 |
| 4.29 | 1.46 | – | – | – | O=C1NCc2ccc(OCCCN3CCN(c4cccc5c4CCO5)CC3)cc21 | – |
| 8.84 | 0.859 | 20.2 | – | – | O=C1NCc2cc(Cl)c(OCCCN3CCN(c4cccc5cccc(F)c45)CC3)cc21 | – |
| 32.1 | 0.671 | – | 54.6 | – | O=C1NCc2cc(F)c(OCCCN3CCN(c4cccc5ccccc45)CC3)cc21 | – |
| 1.08 | 3.62 | – | 2520 | – | O=C1NCc2ccc(OCCCCN3CCN(c4cccc5ccccc45)CC3)c(F)c21 | – |
| 3.85 | 2.61 | 292 | – | – | Cc1c(OCCCCN2CCN(c3cccc4cccc(F)c34)CC2)ccc2c1C(=O)NC2 | – |
| 2.06 | 0.786 | 104 | – | – | O=C1NCc2ccc(OCCCN3CCN(c4cccc5ccccc45)CC3)c(Cl)c21 | – |
| – | – | – | – | 1.99 | O=C1NCc2ccc(OCCCCN3CCN(c4cccc5c4CCOC5)CC3)cc21 | – |
| 25.3 | 0.0501 | – | – | – | O=C1NCc2ccc(OCCCN3CCN(c4cccc5c4OCCC5)CC3)cc21 | – |
| 3.37 | – | – | – | 0.0447 | O=C1NCc2ccc(OCCCN3CCN(c4cccc5ccc(F)cc45)CC3)cc21 | – |
| 55.9 | 0.67 | 1040 | – | – | Cc1cc2c(cc1OCCCN1CCN(c3cccc4ccccc34)CC1)C(=O)NC2 | – |
| 38.5 | 0.88 | 9.22 | 22.2 | – | O=C1NCc2cc(F)c(OCCCN3CCN(c4cccc5cc(F)ccc45)CC3)cc21 | – |
| 10.1 | 0.74 | – | – | – | O=C1NCc2ccc(OCCCCN3CCN(c4cccc5c4CCC5)CC3)cc21 | – |
| 13.8 | 2.71 | 13 | 9.1 | – | O=C1NCc2cc(F)c(OCCCCN3CCN(c4cccc5cc(F)ccc45)CC3)cc21 | – |
| – | – | – | – | 1.3 | O=C1NCc2ccc(OCCCCN3CCN(c4cccc5cc(F)c(F)cc45)CC3)cc21 | – |
| 24.7 | 2.34 | 96.3 | – | – | O=C1NCc2cc(Cl)c(OCCCCN3CCN(c4cccc5ccccc45)CC3)cc21 | – |
| 2.68 | 0.341 | 419 | 13.6 | – | O=C1NCc2cc(F)c(OCCCN3CCN(c4cccc5ccc(F)cc45)CC3)cc21 | – |
| 14 | 17.5 | 47 | – | – | Cc1c(OCCCCN2CCN(c3cccc4cc(F)ccc34)CC2)ccc2c1C(=O)NC2 | – |
| 11.1 | – | – | – | 0.108 | O=C1NCc2ccc(OCCCN3CCN(c4cccc5c4COCC5)CC3)cc21 | – |
| 17.1 | 0.863 | – | – | – | O=C1NCc2ccc(OCCCCN3CCN(c4cccc5c4OCCC5)CC3)cc21 | – |
